Results: ChEMBL document CHEMBL5338775, “Discovery of a Novel Class of PROTACs as Potent and Selective Estrogen Receptor α Degraders to Overcome Endocrine-Resistant Breast Cancer In Vitro and In Vivo” (J Med Chem, 2023)
pIC50, pKi: −log10 of the molar value. The source made the active and inactive calls. The calls are words filed in the database; no cut-off is given here.

Assays:
MDA-MB-231 = test: cells; conditions: Homo sapiens, MDA-MB-231, 72 h
cells = conditions: Homo sapiens, Tamoxifen-resistant LCC2 cell, 72 h
T47D [1] = test: cells; conditions: Homo sapiens, 72 h
T47D [2] = test: cells; conditions: Homo sapiens, 72 h; remark: listed apart in the source
MCF7 = test: cells; conditions: Homo sapiens, MCF7, 72 h
[3] = Selectivity ratio of relative binding affinity for ERalpha (unknown origin) to relative binding affinity to ERbeta (unknown origin)
[4] = target: Protein cereblon/Estrogen receptor (Homo sapiens) (UniProt P03372+Q96SW2); test: PROTAC activity at CRBN/wild type ERalpha in ER-positive human MCF7 cells assessed as induction of ERalpha degradation at 1 uM incubated for 12 hrs by Western blot analysis; assay type: cell-based
Chain of Protein cereblon/Estrogen receptor (Homo sapiens) (Q96SW2 whole entry, looked up, one chain of several): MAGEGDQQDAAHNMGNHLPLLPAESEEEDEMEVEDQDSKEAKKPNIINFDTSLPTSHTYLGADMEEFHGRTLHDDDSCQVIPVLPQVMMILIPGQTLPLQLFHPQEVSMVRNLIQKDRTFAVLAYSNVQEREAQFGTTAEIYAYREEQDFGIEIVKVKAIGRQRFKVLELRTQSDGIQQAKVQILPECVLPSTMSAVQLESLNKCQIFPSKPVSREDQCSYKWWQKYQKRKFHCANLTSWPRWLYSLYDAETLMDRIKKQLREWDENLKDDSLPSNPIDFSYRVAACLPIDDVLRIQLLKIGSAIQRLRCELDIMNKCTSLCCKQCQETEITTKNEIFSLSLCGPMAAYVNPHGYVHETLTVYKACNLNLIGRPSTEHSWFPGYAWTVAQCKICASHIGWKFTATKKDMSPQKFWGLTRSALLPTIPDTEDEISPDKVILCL

Estrogen receptor beta [5] = target: T1, Estrogen receptor beta (Homo sapiens, UniProt Q92731); test: Binding affinity to ERbeta (unknown origin) assessed as relative binding affinity incubated for 2 hrs by fluorescence polarization assay relative to estradiol
T1 sequence (Q92731 whole entry): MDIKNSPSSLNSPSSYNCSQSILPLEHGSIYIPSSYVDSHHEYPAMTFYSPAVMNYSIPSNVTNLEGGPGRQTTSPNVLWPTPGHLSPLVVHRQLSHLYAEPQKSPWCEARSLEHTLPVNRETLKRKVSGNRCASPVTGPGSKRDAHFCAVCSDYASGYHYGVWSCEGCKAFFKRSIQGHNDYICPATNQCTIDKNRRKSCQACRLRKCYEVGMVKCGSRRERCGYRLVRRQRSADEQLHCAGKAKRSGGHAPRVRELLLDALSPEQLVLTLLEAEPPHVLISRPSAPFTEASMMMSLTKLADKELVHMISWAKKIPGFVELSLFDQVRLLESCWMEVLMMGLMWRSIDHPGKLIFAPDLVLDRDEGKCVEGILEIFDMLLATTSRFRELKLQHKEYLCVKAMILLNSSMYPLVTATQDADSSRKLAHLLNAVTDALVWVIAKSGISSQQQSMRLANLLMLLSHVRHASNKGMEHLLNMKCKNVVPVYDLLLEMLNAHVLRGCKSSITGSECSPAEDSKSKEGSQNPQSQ

T47D [6] = test: cells; conditions: Homo sapiens, 72 h; remark: listed apart in the source
Estrogen receptor = target: T2, Estrogen receptor (Homo sapiens, UniProt P03372)
T2 sequence (P03372 whole entry): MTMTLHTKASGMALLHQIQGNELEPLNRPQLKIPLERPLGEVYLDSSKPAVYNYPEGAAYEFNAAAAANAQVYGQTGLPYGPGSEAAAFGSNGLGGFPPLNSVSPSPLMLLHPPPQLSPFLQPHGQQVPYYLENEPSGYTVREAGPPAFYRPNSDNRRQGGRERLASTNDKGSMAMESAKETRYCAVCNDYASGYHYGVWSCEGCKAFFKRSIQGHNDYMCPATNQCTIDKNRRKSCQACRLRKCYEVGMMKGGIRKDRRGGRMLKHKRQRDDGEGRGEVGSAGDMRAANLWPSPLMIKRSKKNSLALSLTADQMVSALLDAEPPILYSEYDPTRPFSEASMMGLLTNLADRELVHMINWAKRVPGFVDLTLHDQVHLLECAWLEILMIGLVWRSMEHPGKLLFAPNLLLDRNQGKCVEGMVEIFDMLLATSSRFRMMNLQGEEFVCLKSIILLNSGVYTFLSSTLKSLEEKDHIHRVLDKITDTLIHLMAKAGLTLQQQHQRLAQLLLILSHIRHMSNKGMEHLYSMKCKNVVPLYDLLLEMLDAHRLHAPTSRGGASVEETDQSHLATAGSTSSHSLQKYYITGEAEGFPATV

Estrogen receptor beta [7] = target: T1, Estrogen receptor beta
[8] = Selectivity index, ratio of Ki for ERalpha (unknown origin) to Ki for ERbeta (unknown origin)
in vitro = conditions: human, MCF-10A cells
[9] = target: von Hippel-Lindau disease tumor suppressor/Estrogen receptor (Homo sapiens) (UniProt P03372+P40337); test: PROTAC activity at VHL/wild type ERalpha in ER-positive human MCF7 cells assessed as induction of ERalpha degradation at 1 uM incubated for 12 hrs by Western blot analysis; assay type: cell-based
Chain of von Hippel-Lindau disease tumor suppressor/Estrogen receptor (Homo sapiens) (P40337 whole entry, looked up, one chain of several): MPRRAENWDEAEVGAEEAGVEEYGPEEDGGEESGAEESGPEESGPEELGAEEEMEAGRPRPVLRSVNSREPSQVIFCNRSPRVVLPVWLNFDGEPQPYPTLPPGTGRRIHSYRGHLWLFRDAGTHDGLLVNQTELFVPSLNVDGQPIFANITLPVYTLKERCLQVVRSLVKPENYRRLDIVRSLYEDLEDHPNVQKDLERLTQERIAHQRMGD

Row | SMILES | pIC50 (MDA-MB-231) | pIC50 (cells) | pIC50 (T47D [1]) | pIC50 (T47D [2]) | pIC50 (MCF7) | Selectivity ratio [3] | Activity [4] | RBA (Estrogen receptor beta [5]) [%] | pIC50 (T47D [6]) | pKi (Estrogen receptor) | pKi (Estrogen receptor beta [7]) | Ratio Ki [8] | IC50 at 72 h (in vitro) [µM] | Activity [9]
1 | O=C(COc1ccc(C2CCC(=O)NC2=O)cc1)NCCCCNC(=O)COc1ccc(N(CC(F)(F)F)S(=O)(=O)C2CC3OC2C(c2ccc(O)cc2)=C3c2ccc(O)cc2)cc1 (configuration not stated) | < 4.00 | 4.84 | 4.75 | 4.83 | 6.16 | 0.89 | Active | 0.18 | 4.82 | 5.90 | 5.36 | 3.44 | 9.45 | 
2 | CCN(c1ccc(OCCCCC(=O)N[C@H](C(=O)N2C[C@H](O)C[C@H]2C(=O)NCc2ccc(-c3scnc3C)cc2)C(C)(C)C)cc1)S(=O)(=O)C1CC2OC1C(c1ccc(O)cc1)=C2c1ccc(O)cc1 (some centres not stated) | < 4.00 | 4.82 | 5.34 | 5.52 | 5.95 | 2.15 |  | 0.13 | 5.14 | 6.14 | 5.22 | 8.34 | 1.03 | 
3 | COc1ccc(N(CC(F)(F)F)S(=O)(=O)C2CC3OC2C(c2ccc(OCCCCCC(=O)N[C@H](C(=O)N4C[C@H](O)C[C@H]4C(=O)NCc4ccc(-c5scnc5C)cc4)C(C)(C)C)cc2)=C3c2ccc(O)cc2)cc1 (some centres not stated) | < 4.00 | < 4.52 | < 4.52 | < 4.52 | < 5.00 | 1.57 |  | 0.07 | < 4.52 | 5.73 | 4.95 | 6.08 | > 100 | inactive
4 | CCN(c1ccc(OCCCCCCC(=O)N[C@H](C(=O)N2C[C@H](O)C[C@H]2C(=O)NCc2ccc(-c3scnc3C)cc2)C(C)(C)C)cc1)S(=O)(=O)C1CC2OC1C(c1ccc(O)cc1)=C2c1ccc(O)cc1 (some centres not stated) | < 4.00 | < 4.52 | < 4.52 | < 4.52 | 6.37 | 1.58 |  | 0.12 | < 4.52 | 5.97 | 5.18 | 6.13 | > 100 | 
5 | O=C(COc1cccc2c1C(=O)N(C1CCC(=O)NC1=O)C2=O)NCCCCOc1ccc(N(CC(F)(F)F)S(=O)(=O)C2CC3OC2C(c2ccc(O)cc2)=C3c2ccc(O)cc2)cc1 (configuration not stated) | < 4.00 | < 4.30 | < 4.30 | < 4.30 | < 4.30 | 0.86 | inactive | 0.07 | < 4.30 | 5.47 | 4.95 | 3.32 | > 100 | 
6 | CCN(c1ccc(OCCCCCC(=O)Nc2cccc3c2C(=O)N(C2CCC(=O)NC2=O)C3=O)cc1)S(=O)(=O)C1CC2OC1C(c1ccc(O)cc1)=C2c1ccc(O)cc1 (configuration not stated) | < 4.00 | < 4.00 | < 4.00 | < 4.00 | < 4.00 | 1.17 | inactive | 0.18 | < 4.00 | 6.01 | 5.36 | 4.52 | > 100 | 
7 | O=C(COc1cccc2c1C(=O)N(C1CCC(=O)NC1=O)C2=O)NCCCCCCOc1ccc(N(CC(F)(F)F)S(=O)(=O)C2CC3OC2C(c2ccc(O)cc2)=C3c2ccc(O)cc2)cc1 (configuration not stated) | < 4.00 | < 4.52 | < 4.52 | 4.59 | 4.96 | 1.1 | Active | 0.1 | < 4.52 | 5.73 | 5.10 | 4.26 | > 100 | 
8 | CCN(c1ccc(OCCCCC(=O)N[C@H](C(=O)N2C[C@H](O)C[C@H]2C(=O)N[C@@H](C)c2ccc(-c3scnc3C)cc2)C(C)(C)C)cc1)S(=O)(=O)C1CC2OC1C(c1ccc(O)cc1)=C2c1ccc(O)cc1 (some centres not stated) | < 4.00 | 4.78 | 4.83 | 4.85 | 6.03 | 1.45 |  | 0.11 | 4.74 | 5.90 | 5.15 | 5.63 | 2.4 | 
9 | CC/C(=C(\c1ccc(O)cc1)c1ccc(OCCN(C)C)cc1)c1ccccc1 [AFIMOXIFENE] |  | 4.65 | 4.94 | 5.71 |  |  |  |  | 5.00 |  |  |  |  | 
10 | O=C(COc1ccc(C2CCC(=O)NC2=O)cc1)NCCNC(=O)COc1ccc(N(CC(F)(F)F)S(=O)(=O)C2CC3OC2C(c2ccc(O)cc2)=C3c2ccc(O)cc2)cc1 (configuration not stated) | < 4.00 | 4.68 | 4.70 | 4.76 | 5.94 | 1.31 | Active | 0.16 | 4.67 | 6.01 | 5.31 | 5.08 | 13.7 | 
11 | CCN(c1ccc(OCCCCCCCCC(=O)N[C@H](C(=O)N2C[C@H](O)C[C@H]2C(=O)NCc2ccc(-c3scnc3C)cc2)C(C)(C)C)cc1)S(=O)(=O)C1CC2OC1C(c1ccc(O)cc1)=C2c1ccc(O)cc1 (some centres not stated) | < 4.00 | < 4.52 | < 4.52 | < 4.52 | < 5.00 | 0.57 |  | 0.07 | < 4.52 | 5.29 | 4.95 | 2.21 | > 100 | 
12 | CCN(c1ccc(OCCCCCCCC(=O)N[C@H](C(=O)N2C[C@H](O)C[C@H]2C(=O)NCc2ccc(-c3scnc3C)cc2)C(C)(C)C)cc1)S(=O)(=O)C1CC2OC1C(c1ccc(O)cc1)=C2c1ccc(O)cc1 (some centres not stated) | < 4.00 | < 4.52 | < 4.52 | < 4.52 | < 5.00 | 2.7 |  | 0.1 | < 4.52 | 6.12 | 5.10 | 10.4 | > 100 | 
13 | CCN(c1ccc(OCCCCCCC(=O)N[C@H](C(=O)N2C[C@H](O)C[C@H]2C(=O)N[C@@H](C)c2ccc(-c3scnc3C)cc2)C(C)(C)C)cc1)S(=O)(=O)C1CC2OC1C(c1ccc(O)cc1)=C2c1ccc(O)cc1 (some centres not stated) | < 4.00 | < 4.52 | < 4.52 | < 4.52 | 6.24 | 1.43 |  | 0.07 | < 4.52 | 5.69 | 4.95 | 5.53 | > 100 | 
14 | O=C(COc1ccc(C2CCC(=O)NC2=O)cc1)NCCCCCCNC(=O)COc1ccc(N(CC(F)(F)F)S(=O)(=O)C2CC3OC2C(c2ccc(O)cc2)=C3c2ccc(O)cc2)cc1 (configuration not stated) | < 4.00 | < 4.52 | < 4.52 | < 4.52 | 5.19 | 1.64 | Active | 0.11 | < 4.52 | 5.95 | 5.15 | 6.34 | > 30 | 
15 | CCN(c1ccc(OCCCCCCCCCC(=O)N[C@H](C(=O)N2C[C@H](O)C[C@H]2C(=O)NCc2ccc(-c3scnc3C)cc2)C(C)(C)C)cc1)S(=O)(=O)C1CC2OC1C(c1ccc(O)cc1)=C2c1ccc(O)cc1 (some centres not stated) | < 4.00 | < 4.52 | < 4.52 | < 4.52 | < 5.00 | 0.75 |  | 0.08 | < 4.52 | 5.47 | 5.01 | 2.9 | > 100 | 
16 | O=C(COc1cccc2c1C(=O)N(C1CCC(=O)NC1=O)C2=O)NCCCCCCCCOc1ccc(N(CC(F)(F)F)S(=O)(=O)C2CC3OC2C(c2ccc(O)cc2)=C3c2ccc(O)cc2)cc1 (configuration not stated) | < 4.00 | < 4.30 | < 4.30 | < 4.30 | < 4.30 | 0.88 | inactive | 0.16 | < 4.30 | 5.84 | 5.31 | 3.39 | > 100 | 
